How the values were obtained:
CCRF-CEM = assay: Growth inhibition of human CCRF-CEM cells at 10 uM incubated for 48 hrs by sulforhodamine B assay relative to control; assay type: functional; conditions: read-out: GI
HL-60(TB) = assay: Growth inhibition of human HL-60(TB) cells at 10 uM incubated for 48 hrs by sulforhodamine B assay relative to control; assay type: functional; conditions: HL-60, 48 h, read-out: GI
MOLT-4 = assay: Growth inhibition of human MOLT4 cells at 10 uM incubated for 48 hrs by sulforhodamine B assay relative to control; assay type: functional; conditions: MOLT-4, 48 h, read-out: GI
RPMI-8226 = assay: Growth inhibition of human RPMI8226 cells at 10 uM incubated for 48 hrs by sulforhodamine B assay relative to control; assay type: functional; conditions: RPMI-8226, 48 h, read-out: GI
SR = assay: Growth inhibition of human SR cells at 10 uM incubated for 48 hrs by sulforhodamine B assay relative to control; assay type: functional; conditions: read-out: GI
A549 = assay: Growth inhibition of human A549/ATCC cells at 10 uM incubated for 48 hrs by sulforhodamine B assay relative to control; assay type: functional; conditions: A549, 48 h, read-out: GI
HOP-62 = assay: Growth inhibition of human HOP62 cells at 10 uM incubated for 48 hrs by sulforhodamine B assay relative to control; assay type: functional; conditions: HOP-62, 48 h, read-out: GI
NCI-H226 = assay: Growth inhibition of human NCI-H226 cells at 10 uM incubated for 48 hrs by sulforhodamine B assay relative to control; assay type: functional; conditions: NCI-H226, 48 h, read-out: GI
NCI-H23 = assay: Growth inhibition of human NCI-H23 cells at 10 uM incubated for 48 hrs by sulforhodamine B assay relative to control; assay type: functional; conditions: NCI-H23, 48 h, read-out: GI
NCI-H322M = assay: Growth inhibition of human NCI-H322M cells at 10 uM incubated for 48 hrs by sulforhodamine B assay relative to control; assay type: functional; conditions: read-out: GI
NCI-H522 = assay: Growth inhibition of human NCI-H522 cells at 10 uM incubated for 48 hrs by sulforhodamine B assay relative to control; assay type: functional; conditions: NCI-H522, 48 h, read-out: GI
HT-29 [1] = assay: Growth inhibition of human HT-29 cells at 10 uM incubated for 48 hrs by sulforhodamine B assay relative to control; assay type: functional; conditions: HT-29, 48 h, read-out: GI
SF-268 = assay: Growth inhibition of human SF268 cells at 10 uM incubated for 48 hrs by sulforhodamine B assay relative to control; assay type: functional; conditions: SF-268, 48 h, read-out: GI
SNB-19 = assay: Growth inhibition of human SNB19 cells at 10 uM incubated for 48 hrs by sulforhodamine B assay relative to control; assay type: functional; conditions: SNB-19, 48 h, read-out: GI
SNB-75 = assay: Growth inhibition of human SNB75 cells at 10 uM incubated for 48 hrs by sulforhodamine B assay relative to control; assay type: functional; conditions: SNB-75, 48 h, read-out: GI
U-251 = assay: Growth inhibition of human U251 cells at 10 uM incubated for 48 hrs by sulforhodamine B assay relative to control; assay type: functional; conditions: U-251, 48 h, read-out: GI
SK-MEL-2 = assay: Growth inhibition of human SK-MEL-2 cells at 10 uM incubated for 48 hrs by sulforhodamine B assay relative to control; assay type: functional; conditions: SK-MEL-2, 48 h, read-out: GI
UACC-257 = assay: Growth inhibition of human UACC257 cells at 10 uM incubated for 48 hrs by sulforhodamine B assay relative to control; assay type: functional; conditions: UACC-257, 48 h, read-out: GI
UACC-62 = assay: Growth inhibition of human UACC62 cells at 10 uM incubated for 48 hrs by sulforhodamine B assay relative to control; assay type: functional; conditions: UACC-62, 48 h, read-out: GI
IGROV-1 = assay: Growth inhibition of human IGROV1 cells at 10 uM incubated for 48 hrs by sulforhodamine B assay relative to control; assay type: functional; conditions: IGROV-1, 48 h, read-out: GI
OVCAR-8 = assay: Growth inhibition of human OVCAR8 cells at 10 uM incubated for 48 hrs by sulforhodamine B assay relative to control; assay type: functional; conditions: OVCAR-8, 48 h, read-out: GI
SK-OV-3 = assay: Growth inhibition of human SKOV3 cells at 10 uM incubated for 48 hrs by sulforhodamine B assay relative to control; assay type: functional; conditions: SK-OV-3, 48 h, read-out: GI
UO-31 = assay: Growth inhibition of human UO31 cells at 10 uM incubated for 48 hrs by sulforhodamine B assay relative to control; assay type: functional; conditions: UO-31, 48 h, read-out: GI
PC-3 = assay: Growth inhibition of human PC3 cells at 10 uM incubated for 48 hrs by sulforhodamine B assay relative to control; assay type: functional; conditions: PC-3, 48 h, read-out: GI
MCF7 = assay: Growth inhibition of human MCF7 cells at 10 uM incubated for 48 hrs by sulforhodamine B assay relative to control; assay type: functional; conditions: MCF7, 48 h, read-out: GI
MDA-MB-231 = assay: Growth inhibition of human MDA-MB-231/ATCC cells at 10 uM incubated for 48 hrs by sulforhodamine B assay relative to control; assay type: functional; conditions: MDA-MB-231, 48 h, read-out: GI
Hs-578T = assay: Growth inhibition of human Hs 578T cells at 10 uM incubated for 48 hrs by sulforhodamine B assay relative to control; assay type: functional; conditions: read-out: GI
T47D = assay: Growth inhibition of human T47D cells at 10 uM incubated for 48 hrs by sulforhodamine B assay relative to control; assay type: functional; conditions: read-out: GI
PANC-1 = assay: Antiproliferative activity against human PANC1 cells after 48 hrs by propidium iodide staining-based fluorometric analysis; assay type: functional, cell-based; conditions: PANC-1, 48 h
MIA PaCa-2 = assay: Antiproliferative activity against human MIAPaCa2 cells after 48 hrs by propidium iodide staining-based fluorometric analysis; assay type: functional, cell-based; conditions: MIA PaCa-2, 48 h
HT-29 [2] = assay: Antiproliferative activity against human HT-29 cells after 48 hrs by propidium iodide staining-based fluorometric analysis; assay type: functional, cell-based; conditions: HT-29, 48 h
NCI-H460 = assay: Antiproliferative activity against human H460 cells after 48 hrs by propidium iodide staining-based fluorometric analysis; assay type: functional, cell-based; conditions: NCI-H460, 48 h
HOP-92 = assay: Growth inhibition of human HOP92 cells at 10 uM incubated for 48 hrs by sulforhodamine B assay relative to control; assay type: functional; conditions: HOP-92, 48 h, read-out: GI
A498 = assay: Growth inhibition of human A498 cells at 10 uM incubated for 48 hrs by sulforhodamine B assay relative to control; assay type: functional; conditions: A498, 48 h, read-out: GI
Tubulin (Homo sapiens) = Tubulin (Homo sapiens) (UniProt P68371+Q9H4B7+P0DPH7+P68366+Q13509+Q71U36+P04350+Q3ZCM7+P07437+P68363+Q9BQE3+Q6PEY2+Q13885+Q9BVA1+Q9BUF5); assay: Inhibition of tubulin (unknown origin) polymerization assessed as polymerized tubulin level at 5 to 25 uM by fluorescence assay; assay type: protein-complex assay

SMILES | inhibition of growth at 10 µM (CCRF-CEM) | inhibition of growth at 10 µM (HL-60(TB)) | inhibition of growth at 10 µM (MOLT-4) | inhibition of growth at 10 µM (SR) | inhibition of growth at 10 µM (A549) | inhibition of growth at 10 µM (HOP-62) | inhibition of growth at 10 µM (NCI-H226) | inhibition of growth at 10 µM (NCI-H23) | inhibition of growth at 10 µM (NCI-H522) | inhibition of growth at 10 µM (HT-29 [1]) | inhibition of growth at 10 µM (SNB-19) | inhibition of growth at 10 µM (SNB-75) | inhibition of growth at 10 µM (U-251) | inhibition of growth at 10 µM (SK-MEL-2) | inhibition of growth at 10 µM (UACC-257) | inhibition of growth at 10 µM (OVCAR-8) | IC50 (PANC-1) | IC50 (MIA PaCa-2) | IC50 (HT-29 [2]) | IC50 (NCI-H460) | further results
C/C(=N\O)c1ccc(NC(=O)Cn2nc(-c3ccc(Cl)cc3)nc2N)cc1 | 14.7% | 5.94% | 33% | 18.3% | 20.1% | 11.7% | 17.8% | 7.43% | 31.5% | 13.3% | 10.7% | 12% | 9.67% | 15.3% | 27.8% | 18% | 6.6 µM | 8.4 µM | 5.8 µM | 7.1 µM | inhibition of growth at 10 µM (RPMI-8226): 6.42%; inhibition of growth at 10 µM (NCI-H322M): 7.09%; inhibition of growth at 10 µM (SF-268): 10.5%; inhibition of growth at 10 µM (UACC-62): 8.96%; inhibition of growth at 10 µM (IGROV-1): 10.5%; inhibition of growth at 10 µM (SK-OV-3): 27.4%; inhibition of growth at 10 µM (UO-31): 34%; inhibition of growth at 10 µM (PC-3): 28.9%; inhibition of growth at 10 µM (MCF7): 15.9%; inhibition of growth at 10 µM (MDA-MB-231): 17.4%; inhibition of growth at 10 µM (Hs-578T): 11.2%; inhibition of growth at 10 µM (T47D): 13.5%
C/C(=N/O)c1ccc(NC(=O)Cn2nc(-c3ccccc3)nc2N)cc1 | 6.77% | 7.41% | 11.5% | 5.58% | 32% | 17.7% | 3.91% | 3.98% | 30% | 13.9% | 3.56% | 22.5% | 8.76% | 5.32% | 34% | 15.3% | 8.7 µM | 5.7 µM | 4.7 µM | 4.4 µM | inhibition of growth at 10 µM (HOP-92): 5.82%; inhibition of growth at 10 µM (SK-OV-3): 15.2%; inhibition of growth at 10 µM (A498): 19.6%; inhibition of growth at 10 µM (UO-31): 15.4%; inhibition of growth at 10 µM (PC-3): 15.8%; inhibition of growth at 10 µM (Hs-578T): 7.41%; inhibition of growth at 10 µM (T47D): 23%
CC(=O)c1ccc(NC(=O)Cn2nc(-c3ccccc3)nc2N)cc1 | – | – | – | – | – | – | – | – | – | – | – | – | – | – | – | – | 9.5 µM | 8.5 µM | 8.4 µM | 9.8 µM | –
CC[C@]1(O)C[C@H]2CN(CCc3c([nH]c4ccccc34)[C@@](C(=O)OC)(c3cc4c(cc3OC)N(C=O)[C@H]3[C@@](O)(C(=O)OC)[C@H](OC(C)=O)[C@]5(CC)C=CCN6CC[C@]43[C@@H]65)C2)C1 | – | – | – | – | – | – | – | – | – | – | – | – | – | – | – | – | – | – | – | – | Activity (Tubulin (Homo sapiens)): 722 a.u.

— ChEMBL document CHEMBL4270577, “Synthesis, anticancer activity and molecular modeling studies of 1,2,4-triazole derivatives as EGFR inhibitors” (Eur J Med Chem, 2018)
